Assay results reported in US20050070480A1, “Peptide arginals and methods for treating disseminated intravascular coagulation” (priority 2001, published 2005).
pIC50: −log10 of the molar value. Read-outs that look alike come from different tables or passages of the source.

How the values were obtained:
[1] = test system: citrated human plasma (exogenous thrombin); experiment: Thrombin time (TT) plasma clotting assay; format: biochemical; conditions: thrombin 2.5 NIH U/ml
Description: (§1) The inhibitory effect on plasma coagulation was evaluated in the thrombin time (TT), activated partial thromboplastin time (APTT) and prothrombin time (PT) assays by using citrated human plasma as substrate [Bagdy, D. et. al.: Thromb. Haemostas. 67, 325 (1992)]. The TT assay measures the inhibition of a single step, the coagulation of fibrinogen on the action of exogenous thrombin (final concentration 2.5 NIH U/ml). Clotting of plasma in the APTT and PT assays was induced by recalcification. Endogenous thrombin generated could theoretically be present at a final concentration as high as 50 NIH U/ml (APTT, PT). These assays detect the sum of inhibitory actions on fibrin formation and thrombin generation, which includes several proteolytic reactions mediated by either thrombin or other enzymes, e.g. fXa. Anticlotting activity is expressed in CT2, which is the concentration (nM) required to double the clotting time.

citrated human plasma [2] = experiment: Activated partial thromboplastin time (APTT) plasma clotting assay; format: biochemical
Description: as §1

citrated human plasma [3] = experiment: Prothrombin time (PT) plasma clotting assay; format: biochemical
Description: as §1

clot-bound thrombin = clot-bound thrombin (Homo sapiens, UniProt P00734); experiment: Enzyme inhibition in platelet-rich plasma clots, chromogenic substrate Tos-Gly-Pro-Arg-pNA; format: biochemical; conditions: for pIC50: clot-bound thrombin, platelet-rich plasma clot
Description: (§2) Tos-Gly-Pro-Arg-pNA (S1) for thrombin and Moc-D-Chg-Gly-Arg-pNA (S2) for factor Xa, as published (Bajusz, S. et al.: PCT Pub. No. WO97/46576) briefly. The assays were carried out at room temperature in glass tubes and 96-well microtiter plates.
(§3) Solutions, (i) Buffer A: 0.1 M sodium phosphate/0.05 M NaCl (pH 8.5). (ii) Inhibitors: 0.1, 1.0 and 10 mg/ml solutions in buffer A containing 0.02% human albumin. (iii) Substrates: 1 mM of S1 and 2 mM of S2 in distilled water.
(§4) (b) Preparation of plasma clots. Platelet rich plasma samples (200 μl) placed in glass tubes were incubated at room temperature with 80 μl 40 mM CaCl2 for 60 min. The clots were washed with 2 ml aliquots of saline (0.9% NaCl) with gentle agitation to remove unbound enzymes In case of successful washing the optical density of the reaction mixture of wash and S1 is less than 5% of the control. The plasma clot thus obtained was kept under saline in the tube until use.
(§5) (c) Assessment of the enzyme inhibition in the clots. After removal of saline, the plasma clot was incubated at 37° C. with 400 μl inhibitor (or buffer A as negative control) for 5 min. and with 100 μl substrate S1 or S3 for 30 min., then the reaction was stopped with 100 μl 50% acetic acid. 150 μl portions of the reaction mixtures were placed in the wells of a microtiter plate and read at 405 nm (ELISA READER 800, Bio-Tek Instruments Inc. Winooski, Vt., USA). IC50 values were generated from the extinction data graphically.

clot-bound factor Xa = clot-bound factor Xa (Homo sapiens, UniProt P00742); experiment: Enzyme inhibition in platelet-rich plasma clots, chromogenic substrate Moc-D-Chg-Gly-Arg-pNA; format: biochemical
Description: as §2, §3, §4, §5

plasmin (PL) = plasmin (PL) (Homo sapiens, UniProt P00747); experiment: Fibrin plate assay, plasmin; format: biochemical; conditions: reduction of lysed area to 50% of control, read-out: LA50 PL
Text: (§6) Inhibitory effects of the compounds of the invention on plasmin (PL) and plasmin generation by plasminogen (Plogen) activators, such as tissue plasminogen activator (tPA), and urokinase (UK) were examined by the fibrin plate assay. (See e.g., Bagdy, D., Barabás, E., Bajusz, S., and Széll, E., Thromb. Haemostas., 67:325-330 (1992); Barabás, E. Szell, E. and Bajusz, S, Blood Coagulation and Fibrinolysis, 4: 243 (1993)) The results are shown in Table 1, Column C. With a few exceptions the analogues are somewhat more inhibitory than Efegatran against the three fibrinolytic enzymes.

[4] = molecular target: tissue plasminogen activator (tPA) (Homo sapiens, UniProt P00750); experiment: Fibrin plate assay, tissue plasminogen activator; format: biochemical; conditions: reduction of lysed area to 50% of control, read-out: LA50 tPA
Text: as §6

urokinase (UK) = urokinase (UK) (Homo sapiens, UniProt P00749); experiment: Fibrin plate assay, urokinase; format: biochemical; conditions: for pIC50: reduction of lysed area to 50% of control, urokinase, read-out: LA50 UK
Text: as §6

[5] = test system: endotoxin-treated rabbits; format: in vivo, rabbit
LPS-treated rats = experiment: Survival in a rat model for disseminated intravascular coagulation; format: in vivo; conditions: for Effectiveness on survival compared with reference C (in words): LPS-treated rats; for Survival rate %: rats, 30 mg/kg LPS i.v.
endotoxin-treated rats = experiment: Rat model for disseminated intravascular coagulation (fibrin deposition, platelet count, FDP)
Description: The effects of compound 1 of the invention and two control anticoagulants, Efegatran (C) and heparin (H) on such phenomena were examined in endotoxin-treated rats [Ford, A. J. and Longridge, D. J.: Br. J. Pharmacol. 110, Suppl.
Male rats were treated with an i.v. bolus injection of 10 mg/kg endotoxin. It was followed by i.v. infusion of saline or the test compounds for four hours. Of compounds 1 and 3, 0.25 mg/kg was given as an initial bolus injection followed by an 0.25 mg/kg/h i.v. infusion for four hours. Heparin (H) was applied similarly, 50 IU/kg as an initial bolus injection followed by an 50 IU/kg/h i.v. infusion for four hours. Control group of animals was treated with 0.9% saline.
The deposition of ^125I-fibrin was investigated in selected organs (liver and kidney. ^125I-fibrinogen was injected 30 min. prior to endotoxin injection. The radioactivities in the tissue samples were measured in a gamma counter (Wallac Wizard 1470). Microthrombi formation in the organs was assessed using the ratio of organ ^125I activity to injected total ^125I activity, defined as the microthrombi index. Changes in this parameter are expressed in percent compared to saline group.
Number of platelet count was determined in an automatic appliance (Sysmex F-800) and related to control values.
Determination of FDP (fibrin degradation products) by Aggristin (Ristocetin) precipitation assay. […]

[6] = endotoxin-treated rabbits, 0.25 mg/kg/h infusion, 2 hrs
[7] = endotoxin-treated rabbits, 0.25 mg/kg/h infusion, 4 hrs
[8] = endotoxin-treated rabbits, 0.5 mg/kg/h infusion, 2 hrs
[9] = endotoxin-treated rabbits, 0.5 mg/kg/h infusion, 4 hrs
[10] = 0.75 mg/kg bolus + infusion, 0 hours
[11] = 0.75 mg/kg bolus + infusion, 4 hours
[12] = 0.75 mg/kg bolus + infusion, 5 hours
[13] = 0.75 mg/kg bolus + infusion, 6 hours
[14] = 0.75 mg/kg bolus + infusion, 7 hours
[15] = 0.75 mg/kg bolus + infusion, 8 hours
[16] = 1.5 mg/kg bolus + infusion, 0 hours
[17] = 1.5 mg/kg bolus + infusion, 4 hours
[18] = 1.5 mg/kg bolus + infusion, 5 hours
[19] = 1.5 mg/kg bolus + infusion, 6 hours
[20] = 1.5 mg/kg bolus + infusion, 7 hours
[21] = 1.5 mg/kg bolus + infusion, 8 hours

Sequence of plasmin (PL) (P00747 581-810 limits assumed, species assumed): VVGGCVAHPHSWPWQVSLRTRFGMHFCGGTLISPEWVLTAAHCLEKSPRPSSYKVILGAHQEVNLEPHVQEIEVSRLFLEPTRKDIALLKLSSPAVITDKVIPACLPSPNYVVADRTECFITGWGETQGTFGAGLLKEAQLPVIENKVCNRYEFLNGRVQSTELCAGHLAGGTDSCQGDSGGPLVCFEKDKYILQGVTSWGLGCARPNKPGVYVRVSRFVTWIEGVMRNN
Sequence of plasmin (PL) (P00747 97-580 limits assumed, species assumed): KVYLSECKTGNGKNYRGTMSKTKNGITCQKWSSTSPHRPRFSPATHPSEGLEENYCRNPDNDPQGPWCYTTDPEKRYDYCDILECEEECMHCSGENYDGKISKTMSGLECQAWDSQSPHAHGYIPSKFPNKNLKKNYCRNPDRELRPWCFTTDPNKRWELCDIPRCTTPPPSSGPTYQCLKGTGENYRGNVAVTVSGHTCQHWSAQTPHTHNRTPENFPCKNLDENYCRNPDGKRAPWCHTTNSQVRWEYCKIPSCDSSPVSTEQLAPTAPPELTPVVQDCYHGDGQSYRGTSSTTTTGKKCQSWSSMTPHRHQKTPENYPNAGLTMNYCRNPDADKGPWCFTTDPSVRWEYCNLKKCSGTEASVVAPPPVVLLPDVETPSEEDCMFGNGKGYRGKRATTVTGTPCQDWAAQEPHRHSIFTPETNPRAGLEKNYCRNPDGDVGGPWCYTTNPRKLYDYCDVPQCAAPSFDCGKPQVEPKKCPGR
Sequence of clot-bound factor Xa (P00742 235-488 limits assumed): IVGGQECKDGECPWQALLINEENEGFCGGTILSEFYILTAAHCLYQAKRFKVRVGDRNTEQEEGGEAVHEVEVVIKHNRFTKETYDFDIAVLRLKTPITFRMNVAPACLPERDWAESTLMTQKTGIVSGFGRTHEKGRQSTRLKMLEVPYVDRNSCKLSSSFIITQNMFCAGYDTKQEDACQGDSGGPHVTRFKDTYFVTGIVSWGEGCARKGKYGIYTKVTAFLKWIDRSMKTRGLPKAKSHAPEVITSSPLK
Sequence of clot-bound factor Xa (P00742 41-179 limits assumed): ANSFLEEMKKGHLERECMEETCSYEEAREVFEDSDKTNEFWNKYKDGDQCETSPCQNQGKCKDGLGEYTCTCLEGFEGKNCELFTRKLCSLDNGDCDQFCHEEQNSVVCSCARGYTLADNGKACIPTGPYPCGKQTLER
Sequence of tissue plasminogen activator (tPA) (P00750 36-562, species assumed): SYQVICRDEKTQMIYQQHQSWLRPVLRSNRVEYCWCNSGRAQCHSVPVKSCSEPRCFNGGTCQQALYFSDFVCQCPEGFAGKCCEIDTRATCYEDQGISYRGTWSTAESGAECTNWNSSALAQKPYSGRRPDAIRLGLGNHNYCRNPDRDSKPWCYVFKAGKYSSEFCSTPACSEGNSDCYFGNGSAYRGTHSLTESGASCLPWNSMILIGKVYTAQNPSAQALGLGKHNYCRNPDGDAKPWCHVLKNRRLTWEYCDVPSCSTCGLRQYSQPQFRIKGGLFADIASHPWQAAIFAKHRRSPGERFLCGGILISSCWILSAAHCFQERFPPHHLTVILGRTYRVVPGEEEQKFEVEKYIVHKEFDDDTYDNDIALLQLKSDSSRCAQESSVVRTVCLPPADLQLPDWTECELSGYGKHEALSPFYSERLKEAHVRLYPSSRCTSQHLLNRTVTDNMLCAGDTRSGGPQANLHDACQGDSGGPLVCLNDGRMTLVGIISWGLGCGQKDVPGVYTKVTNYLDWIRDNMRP

| SMILES | CT2 TT (concentration required for doubling the clotting time) [1] [nM] | CT2 APTT (concentration required for doubling the clotting time) (citrated human plasma [2]) [nM] | CT2 PT (concentration required for doubling the clotting time) (citrated human plasma [3]) [nM] | Inhibition of clot-bound thrombin compared with Efegatran (in words) (clot-bound thrombin) | pIC50 (clot-bound thrombin) | pIC50 (clot-bound factor Xa) | pIC50 (plasmin (PL)) | pIC50 [4] | pIC50 (urokinase (UK)) | Effectiveness on survival compared with reference C (in words) (LPS-treated rats) | Survival rate % (LPS-treated rats; [10]) [%] | Survival rate % (LPS-treated rats; [11]) [%] | Survival rate % (LPS-treated rats; [12]) [%] | Survival rate % (LPS-treated rats; [13]) [%] | Survival rate % (LPS-treated rats; [14]) [%] | Survival rate % (LPS-treated rats; [15]) [%] | Survival rate % (LPS-treated rats; [16]) [%] | Survival rate % (LPS-treated rats; [17]) [%] | Survival rate % (LPS-treated rats; [18]) [%] | Survival rate % (LPS-treated rats; [19]) [%] | further results |
| --- | --- | --- | --- | --- | --- | --- | --- | --- | --- | --- | --- | --- | --- | --- | --- | --- | --- | --- | --- | --- | --- |
| CCOC(=O)N[C@H](CC1CCCCCC1)C(=O)N1CCC[C@H]1C(=O)N[C@H](C=O)CCCNC(=N)N [Compound 1, ethoxycarbonyl-D-cycloheptylalanyl-L-prolyl-L-arginine aldehyde] | 147 | 331 | 1839 | surpass Efegatran | 6.99 | 6.93 | 4.74 | 5.00 | 4.85 | more effective than reference C | 100 | 100 | 100 | 100 | 90 | 70 | 100 | 100 | 100 | 100 | Effect on lethality of endotoxin-treated rabbits (in words) ([5]; compared with endotoxin alone): significantly reduce the lethality; Lethality %, 2 hrs [5, 6]: 0%; Lethality no. died/treated animals, 2 hrs [5, 6]: 0/19; Lethality %, 4 hrs [5, 7]: 16%; Lethality no. died/treated animals, 4 hrs [5, 7]: 3/19; Lethality %, 2 hrs [5, 8]: 0%; Lethality no. died/treated animals, 2 hrs [5, 8]: 0/12; Lethality %, 4 hrs [5, 9]: 17%; Lethality no. died/treated animals, 4 hrs [5, 9]: 2/12; Survival rate % (LPS-treated rats; 1.0 mg/kg bolus + infusion, 0 hours): 100%; Survival rate % (LPS-treated rats; 1.0 mg/kg bolus + infusion, 4 hours): 100%; Survival rate % (LPS-treated rats; 1.0 mg/kg bolus + infusion, 5 hours): 100%; Survival rate % (LPS-treated rats; 1.0 mg/kg bolus + infusion, 6 hours): 100%; Survival rate % (LPS-treated rats; 1.0 mg/kg bolus + infusion, 7 hours): 90%; Survival rate % (LPS-treated rats; 1.0 mg/kg bolus + infusion, 8 hours): 90%; Survival rate % (LPS-treated rats; [20]): 100%; Survival rate % (LPS-treated rats; [21]): 100%; DIC-inhibiting potential (in words) (endotoxin-treated rats): more pronounced than that of either heparin or Efegatran |
| N=C(N)NCCC[C@@H](C=O)NC(=O)[C@@H]1CCCN1C(=O)[C@H](O)CC1CCCCCC1 [Compound 3, D-cycloheptyllactyl-L-prolyl-L-arginine aldehyde] | 86 | 281 | 1082 | surpass Efegatran | 7.02 | 6.93 | 4.68 | 5.00 | 4.07 | more effective than reference C | 100 | 100 | 100 | 100 | 100 | 92 | 100 | 100 | 100 | 100 | Activity against UK compared with Efegatran (in words) (urokinase (UK)): almost equiactive with Efegatran; Effect on lethality of endotoxin-treated rabbits (in words) ([5]; rabbit, in vivo): significantly reduce the lethality; Lethality %, 2 hrs ([5]; rabbit, in vivo, 0.25 mg/kg): 0%; Lethality %, 4 hrs ([5]; rabbit, in vivo, 0.25 mg/kg): 18%; Lethality no. died/treated animals, 2 hrs ([5]; rabbit, in vivo, 0.25 mg/kg): 0/22; Lethality no. died/treated animals, 4 hrs ([5]; rabbit, in vivo, 0.25 mg/kg): 4/22; Survival rate % (LPS-treated rats; 0.5 mg/kg bolus + infusion, 0 hours): 100%; Survival rate % (LPS-treated rats; 0.5 mg/kg bolus + infusion, 4 hours): 100%; Survival rate % (LPS-treated rats; 0.5 mg/kg bolus + infusion, 5 hours): 100%; Survival rate % (LPS-treated rats; 0.5 mg/kg bolus + infusion, 6 hours): 100%; Survival rate % (LPS-treated rats; 0.5 mg/kg bolus + infusion, 7 hours): 100%; Survival rate % (LPS-treated rats; 0.5 mg/kg bolus + infusion, 8 hours): 80%; Survival rate % (LPS-treated rats; [20]): 100%; Survival rate % (LPS-treated rats; [21]): 92% |
